Measurements taken from US11702443B2, “Therapeutic agents and methods” (Pop Test Oncology LLC, priority 2016, dated 2023).
In brackets after ≈: the same amount, converted by molar mass. Entries after “also recorded” stand apart in the source; their conditions may differ. Like-named read-outs stand apart in the source and are kept apart here.

Columns and labels:
[1] = Host cytotoxicity in HBV assay; details: human, HepG2 2.2.15 cells
[2] = tested on: Human Hepatitis B Virus Subtype ayw; experiment: In vitro antiviral activity versus HBV ayw replication, DNA (Southern) hybridization; assay type: cell-based; details: HepG2 2.2.15
[3] = tested on: Mycobacterium tuberculosis ATCC 9360 H37Rv; details: cited from earlier work
[4] = tested on: Staphylococcus aureus ATCC 6538; details: cited from earlier work
[5] = tested on: Diplococcus pneumoniae = Streptococcus pneumoniae U.C. 41; details: Diplococcus pneumoniae U.C. 41; cited from earlier work
[6] = tested on: Klebsiella pneumoniae ATCC 10031; details: cited from earlier work
[7] = tested on: Pseudomonas aeruginosa ATCC 10145; details: cited from earlier work
[8] = tested on: Staphylococcus aureus infection; details: cited from earlier work
[9] = cited from earlier work
[10] = tested on: Staphylococcus aureus Tour; details: cited from earlier work
[11] = tested on: Mycobacterium tuberculosis virulent standard strain H37Rv; experiment: Standard resazurin-resorufin assay versus M. tuberculosis H37Rv; assay type: cell-based
[12] = tested on: Proteus vulgaris ATCC 881; details: cited from earlier work
[13] = tested on: Streptococcus haemolyticus = S. pyogenes C 203; details: Streptococcus haemolyticus C 203, cited from earlier work
[14] = tested on: Escherichia coli ATCC 10536; details: cited from earlier work
[15] = in vivo; cited from earlier work
[16] = tested on: Staphylococcus aureus Tour Rif-resistant; details: cited from earlier work
Bacillus megaterium = experiment: Activity versus Bacillus megaterium; assay type: cell-based
[17] = Chemical stability (atmospheric oxygen, hydrolysis, UV light)
B. subtilis = experiment: Agar Disk Diffusion Assay with B. subtilis; assay type: cell-based, Bacillus subtilis
[18] = Hydrolysis in formic acid-acidified (0.05%) HPLC eluent; assay type: physicochemical; details: compared with rifampicin
Procedure: Compound stock solutions were diluted to 2 mM in DMSO and injected into an Agilent 1100 HPLC system using the following conditions for separation: Phenomenex Gemini C18 column, 3×50 mm; flow rate 0.45 ml/min; gradient 5-95% acetonitrile in water over 8 min with all solvents containing 0.05% formic acid. Detection used the following: UV detector—Agilent diode array, monitored at 214 and 254 nm; mass spectrometry detector (MSD)—Agilent MSD, electrospray ionization, positive mode.
The chromatographic separation of TPR-1 is given in FIGS. 15A to C. • There are four peaks (4.462 min, 4.951 min, 5.657 min, 6.679 min) at 214 nm and 254 nm diode array UV detection • No other significant peaks are seen • The two main peaks (4.951 min, 5.657 min) stem from the two discernible, coexisting ionic forms of the rifamycin.
[drawing 32] • In the above picture the left formula is zwitterionic, whereas the right formula is cationic. The zwitterionic form elutes at 4.951 min, since it is more polar, and the cationic form elutes at 5.657 min, since it is more lipophilic. The cationic form was integrated by IDRI as 59%. So the cationic form dominates in the formic acid-acidified (0.05%) HPLC eluent, as to be expected • The two small side peaks stem from hydrolysis of TPR-1 by the formic acid-acidified (0.05%) HPLC eluent. This is a phenomenon well-known for rifampcin (Ref. 2). […]

NF-κB = experiment: NF-κB-luciferase reporter in mixed cultures of primary astrocytes and microglia; assay type: cell-based, mice; details: 1 μM, 10 μM and 100 μM, 3 hours; then Poly I:C, LPS or TNFα for 24 h
cancer cells = experiment: Cytotoxicity to cancer cells; assay type: cell-based
HepG2 2.2.15 = experiment: Host cytotoxicity in HBV assay; details: HepG2 2.2.15; rows of RT-qPCR assay
[19] = tested on: Human Hepatitis B Virus Subtype ayw; experiment: In vitro antiviral activity versus HBV ayw replication, RT-qPCR; assay type: cell-based; details: HepG2 2.2.15
[20] = strain H37Rv, read-out: Minimal inhibitory concentration 99% (MIC99) in nmol/Liter
[21] = strain H37Rv, read-out: Minimal inhibitory concentration 99% (MIC99) in μg/ml

Nc1ccn([C@@H]2CS[C@H](CO)O2)c(=O)n1 [Lamivudine]
CC50 [1]: 2190 µM | EC50 [2]: 0.026 µM | EC90 [2]: 0.116 µM

CO/N=C/c1c2c(O)c3c(O)c(C)c4c(c3c1O)C(=O)[C@@](C)(O/C=C/[C@H](OC)[C@@H](C)[C@@H](OC(C)=O)[C@H](C)[C@H](O)[C@H](C)[C@@H](O)[C@@H](C)/C=C/C=C(/C)C(=O)N2)O4 [MR-1, (2S,12Z,14E,16S,17S,18R,19R,20R,21S,22R,23S,24E)-21-(acetyloxy)-5,6,9,17,19-pentahydroxy-23-methoxy-8-[(E)-(methoxyimino)methyl]-2,4,12,16,18,20,22-heptamethyl-2,7-(epoxypentadeca[1,11,13]trienimino)naphtho[2,1-b]furan-1,11(2H)-dione]
MIC (μg/ml) reference 1 (1966) [3]: 0.1 µg/mL (≈ 0.132 µM) | MIC (μg/ml) reference 2 (1974) [3]: 0.05 µg/mL (≈ 0.0662 µM) | MIC (μg/ml) reference 1 (1966) [4]: 0.0005 µg/mL (≈ 0.000662 µM) | MIC (μg/ml) reference 2 (1974) [5]: 0.01 µg/mL (≈ 0.0132 µM) | MIC (μg/ml) reference 1 (1966) [6]: 10 µg/mL (≈ 13.2 µM) | MIC (μg/ml) reference 2 (1974) [6]: 10 µg/mL (≈ 13.2 µM) | MIC (μg/ml) reference 1 (1966) [7]: 10 µg/mL (≈ 13.2 µM) | MIC (μg/ml) reference 2 (1974) [7]: 10 µg/mL (≈ 13.2 µM) | In vivo effective dose 50% (ED50) (mg/kg) in curing Staphylococcus aureus infection in mice, per os [8]: 0.53 mg/kg | In vivo effective dose 50% (ED50) (mg/kg) in curing Staphylococcus aureus infection in mice, subcutaneous [8]: 0.87 mg/kg | In vivo lethal dose 50% (LD50) (mg/kg) intravenous in mice [9]: 152 mg/kg | MIC (μg/ml) reference 2 (1974) [10]: 0.002 µg/mL (≈ 0.00265 µM) | MIC99 [11, 20]: 106 nmol/L | MIC99 [11, 21]: 0.08 µg/mL | MIC (μg/ml) reference 1 (1966) [12]: 2 µg/mL (≈ 2.65 µM) | MIC (μg/ml) reference 2 (1974) [12]: 2 µg/mL (≈ 2.65 µM) | MIC (μg/ml) reference 1 (1966) [13]: 0.01 µg/mL (≈ 0.0132 µM) | MIC (μg/ml) reference 2 (1974) [13]: 0.01 µg/mL (≈ 0.0132 µM) | MIC (μg/ml) reference 1 (1966) [14]: 5 µg/mL (≈ 6.62 µM) | MIC (μg/ml) reference 2 (1974) [14]: 5 µg/mL (≈ 6.62 µM) | Oral bioavailability [15]: more orally bioavailable than OR-1 | MIC (μg/ml) reference 2 (1974) [16]: >100 µg/mL

CO[C@H]1/C=C/O[C@@]2(C)Oc3c(C)c(O)c4c(O)c(c(/C=N/O)c(O)c4c3C2=O)NC(=O)/C(C)=C\C=C\[C@H](C)[C@H](O)[C@@H](C)[C@@H](O)[C@@H](C)[C@H](OC(C)=O)[C@@H]1C [OR-1, 3-Formylrifamycin SV (E)-oxime 1.2 hydrate]
MIC (μg/ml) reference 1 (1966) [3]: 5 µg/mL | MIC (μg/ml) reference 2 (1974) [3]: 5 µg/mL | MIC (μg/ml) reference 1 (1966) [4]: 0.02 µg/mL | MIC (μg/ml) reference 2 (1974) [5]: 0.01 µg/mL | MIC (μg/ml) reference 1 (1966) [6]: 20 µg/mL | MIC (μg/ml) reference 2 (1974) [6]: 20 µg/mL | MIC (μg/ml) reference 1 (1966) [7]: 10 µg/mL | MIC (μg/ml) reference 2 (1974) [7]: 10 µg/mL | In vivo effective dose 50% (ED50) (mg/kg) in curing Staphylococcus aureus infection in mice, per os [8]: 5.66 mg/kg | In vivo effective dose 50% (ED50) (mg/kg) in curing Staphylococcus aureus infection in mice, subcutaneous [8]: 2.46 mg/kg | In vivo lethal dose 50% (LD50) (mg/kg) intravenous in mice [9]: 690 mg/kg | MIC (μg/ml) reference 2 (1974) [10]: 0.02 µg/mL | MIC99 [11, 20]: 787 nmol/L | MIC99 [11, 21]: 0.6 µg/mL | MIC (μg/ml) reference 1 (1966) [12]: 10 µg/mL | MIC (μg/ml) reference 2 (1974) [12]: 10 µg/mL | MIC (μg/ml) reference 1 (1966) [13]: 0.01 µg/mL | MIC (μg/ml) reference 2 (1974) [13]: 0.01 µg/mL | MIC (μg/ml) reference 1 (1966) [14]: 5 µg/mL | MIC (μg/ml) reference 2 (1974) [14]: 5 µg/mL | Oral bioavailability [15]: orally bioavailable | MIC (μg/ml) reference 2 (1974) [16]: >100 µg/mL

CO[C@H]1/C=C/O[C@@]2(C)Oc3c(C)c(O)c4c(O)c(c(/C=N/N5CCN(C)CC5)c(O)c4c3C2=O)NC(=O)/C(C)=C\C=C\[C@H](C)[C@H](O)[C@@H](C)[C@@H](O)[C@@H](C)[C@H](OC(C)=O)[C@@H]1C [Rifampicin, reference compound]
MIC99 ([11]; H37RV, read-out: Minimal inhibitory concentration 99% (MIC99) in nmol/Liter (nM)): 72.7 nmol/L | MIC99 ([11]; H37RV, read-out: Minimal inhibitory concentration 99% (MIC99) in μg/ml): 0.06 µg/mL

CO[C@H]1/C=C/O[C@@]2(C)Oc3c(C)c(O)c4c(O)c(c(/C=N/N5CC[N+](C)(CC#C[Si](C)(C)C)CC5)c([O-])c4c3C2=O)NC(=O)/C(C)=C\C=C\[C@H](C)[C@H](O)[C@@H](C)[C@@H](O)[C@@H](C)[C@H](OC(C)=O)[C@@H]1C [TPR-1, Nω[3-(Trimethylsilyl)prop-2-yn-1-yl]rifampicinium-4-olate×¾ HBr×H2O]
Activity versus Bacillus megaterium (Bacillus megaterium): highly active | Oxidation by atmospheric oxygen [17]: not oxidized by atmospheric oxygen; also recorded: resistant to oxidation | Stability towards hydrolysis and UV light [17]: enhanced stability towards hydrolysis and UV light | Activity versus Bacillus subtilis (B. subtilis): highly active | zone of inhibition at 1 µg/disc (B. subtilis; Bacillus subtilis, paper disc with 1 μg, overnight at 30° C., read-out: Clearance zones (in mm)): 18.3 mm | zone of inhibition at 10 µg/disc (B. subtilis; Bacillus subtilis, paper disc with 10 μg, overnight at 30° C., read-out: Clearance zones (in mm)): 21.1 mm | Susceptibility to hydrolysis of the hydrazone imine group in acidic media [18]: more susceptible to this hydrolysis than rifampicin | MIC99 [11, 20]: 19.8 to 39.5 nmol/L | MIC99 [11, 21]: 0.02 to 0.04 µg/mL | Luciferase activity (suppression of inflammation) (NF-κB): dose dependent decrease of luciferase activity

(11,17)-17-Hydroperoxy-11-[3,4-(methylenedioxy)phenyl]-17-(1-propyn-1-yl)estra-4,9-dien-3-one-(11,17)-17-hydroxy-11-[3,4-(methylenedioxy)phenyl]-17-(1-propyn-1-yl)estra-4,9-dien-3-one (1:1) [PT157]
Luciferase activity (suppression of inflammation) (NF-κB): dose dependent decrease of luciferase activity

Tetrakis{3-[(tricyclo[3.3.1.1^3,7]decan-1-ammonio)methyl]benzyl}ammonium pentachloride [PT162]
Cytotoxicity to cancer cells (cancer cells): extremely cytotoxic to cancer cells

⅓(11β,17β)-17-Hydroxy-11-[3,4-(methylenedioxy)phenyl]-17-(1-propyn-1-yl)estra-4,9-dien-3-one (PT150)×(2EZ)-2-{(11β,17β)-17-hydroxy-11-[3,4-(methylenedioxy)phenyl]-17-(1-propyn-1-yl)estra-4,9-dien-3-ylidene}hydrazinecarbothioamide [71.8% (E), 28.2% (Z)]×⅓ H2O× 7/9 acetone [PT155]
CC50 (HepG2 2.2.15): > 100 µM | Solubility in organic solvents (Solubility; ethanol, acetone, DMSO, DMF, ethyl acetate, and chloroform): very soluble | Solubility in water (Solubility; water): not soluble in water initially | EC50 [19]: 10.8 µM | EC90 [19]: > 100 µM | Luciferase activity (suppression of inflammation) (NF-κB): dose dependent decrease of luciferase activity
